From ChEMBL document CHEMBL4732070, “Design, synthesis and biological assessment of new selective COX-2 inhibitors including methyl sulfonyl moiety” (Eur J Med Chem, 2021)

Key:
[1] = target: T1, Prostaglandin G/H synthase 1 (Homo sapiens, UniProt P23219); experiment: Inhibition of COX-1 (unknown origin) using arachidonic acid as substrate at 1000 uM measured after 10 mins by fluorometric based multimode microplate reader relative to control
[2] = target: T1, Prostaglandin G/H synthase 1; experiment: Inhibition of COX-1 (unknown origin) using arachidonic acid as substrate at 100 uM measured after 10 mins by fluorometric based multimode microplate reader relative to control
[3] = target: T1, Prostaglandin G/H synthase 1; experiment: Inhibition of COX-1 (unknown origin) using arachidonic acid as substrate measured after 10 mins by fluorometric based multimode microplate reader

T1 sequence (P23219 whole entry): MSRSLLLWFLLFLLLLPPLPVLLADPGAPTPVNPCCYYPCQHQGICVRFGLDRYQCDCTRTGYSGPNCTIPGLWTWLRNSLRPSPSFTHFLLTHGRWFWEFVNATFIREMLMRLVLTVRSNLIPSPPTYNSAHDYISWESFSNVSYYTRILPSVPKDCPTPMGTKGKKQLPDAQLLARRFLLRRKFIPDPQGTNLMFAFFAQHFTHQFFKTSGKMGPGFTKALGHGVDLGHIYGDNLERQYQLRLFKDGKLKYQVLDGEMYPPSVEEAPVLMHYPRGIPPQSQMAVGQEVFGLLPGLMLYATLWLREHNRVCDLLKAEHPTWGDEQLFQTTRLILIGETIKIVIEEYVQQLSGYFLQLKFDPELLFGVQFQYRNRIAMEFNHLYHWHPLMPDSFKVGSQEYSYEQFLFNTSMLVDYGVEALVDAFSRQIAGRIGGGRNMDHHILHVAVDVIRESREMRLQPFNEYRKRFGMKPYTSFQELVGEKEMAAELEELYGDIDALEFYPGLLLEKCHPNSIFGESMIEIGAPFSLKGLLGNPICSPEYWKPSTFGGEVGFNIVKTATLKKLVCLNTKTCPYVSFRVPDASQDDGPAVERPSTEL

| inhibition [1] | inhibition [2] | IC50 [3] | SMILES |
| --- | --- | --- | --- |
| 57.4% | 40.8% | > 100 µM | COc1cccc(/C=N/Nc2nc(-c3ccc(S(C)(=O)=O)cc3)cs2)c1OC |
| 48.9% | 32.2% | > 1000 µM | CS(=O)(=O)c1ccc(-c2csc(N/N=C/c3ccc(O)cc3)n2)cc1 |
| 66.3% | 40.9% | > 100 µM | CS(=O)(=O)c1ccc(-c2csc(N/N=C/c3cccc(O)c3)n2)cc1 |
|  | 89.4% |  | CC(C)Cc1ccc(C(C)C(=O)O)cc1 (configuration not stated) |
| 43.3% | 32.3% | > 1000 µM | COc1cc(/C=N/Nc2nc(-c3ccc(S(C)(=O)=O)cc3)cs2)cc(OC)c1O |
| 43.1% | 30.8% | > 1000 µM | COc1ccccc1/C=N/Nc1nc(-c2ccc(S(C)(=O)=O)cc2)cs1 |
| 53% | 43% | > 100 µM | COc1ccc(O)c(/C=N/Nc2nc(-c3ccc(S(C)(=O)=O)cc3)cs2)c1 |
| 61.3% | 41.2% | > 100 µM | COc1ccc(/C=N/Nc2nc(-c3ccc(S(C)(=O)=O)cc3)cs2)cc1O |
| 60% | 35% | > 100 µM | COc1ccc(OC)c(/C=N/Nc2nc(-c3ccc(S(C)(=O)=O)cc3)cs2)c1 |
| 45.7% | 35.8% | > 1000 µM | COc1cc(/C=N/Nc2nc(-c3ccc(S(C)(=O)=O)cc3)cs2)cc(OC)c1OC |
| 47.1% | 31.4% | > 1000 µM | CS(=O)(=O)c1ccc(-c2csc(N/N=C/c3ccc(O)cc3O)n2)cc1 |
| 55.6% | 40% | > 100 µM | COc1ccc(/C=N/Nc2nc(-c3ccc(S(C)(=O)=O)cc3)cs2)cc1OC |
| 44.6% | 27.7% | > 1000 µM | COc1ccc(/C=N/Nc2nc(-c3ccc(S(C)(=O)=O)cc3)cs2)c(OC)c1 |
